From patent US7064139B2, “Method for treating retroviral infections” (Uniroyal Chemical Company, Inc., priority 2001, dated 2006)
≈ marks a conversion by molar mass, not a printed value. Where two headings read alike, the source gives them in different places.

Key:
HIV-1 (IIIB) = assay: microbe, parasite or virus in culture; format: cell-based; conditions: for EC50: Human immunodeficiency virus 1, IIIB, CCRF-CEM, read-out: EC50 (ug/ml) HIV-1; for HIV-1 % Protection: protection of CEM cells against virus-induced cytopathicity at the concentration in the previous column
Procedure, shortened: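 Human T-lymphoblast CEM cells at roughly 300,000 cells per ml were infected with about 100 CCID50 of HIV-1 (IIIB). Then 100 μl of the infected suspension went into 200 μl microtiter wells holding 100 μl of 5-fold serial compound dilutions. Inhibition of syncytium formation was scored microscopically on day four post infection, and protection against virus-induced cytopathicity was recorded.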

Davis strain CMV = assay: Reduction of CMV-induced cytopathicity in HEL cells; format: cell-based, human cytomegalovirus (HCMV); conditions: for EC50: read-out: Antiviral EC50 (ug/ml) Davis strain CMV; for Antiviral % Inhibition Davis strain CMV: estimate of percent protection at the concentration in the previous column
Procedure, shortened: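 Confluent HEL cells were infected with 100 PFU/well CMV for 1–2 h, then washed and kept in MEM with 2% FCS and test compound. EC50 is the concentration cutting virus-induced cytopathicity by 50% versus untreated control at day 7. Where cytotoxicity interfered, percent protection at the stated concentration is given.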

HIV-2 (ROD) = assay: Inhibition of HIV-2 syncytium formation in CEM cells; format: cell-based; conditions: for HIV-2 % Protection: protection of CEM cells against virus-induced cytopathicity at the concentration in the previous column; for EC50: Human immunodeficiency virus 2, CCRF-CEM, read-out: EC50 (ug/ml) HIV-2
Procedure, shortened: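 Human T-lymphoblast CEM cells, suspended at roughly 300,000 cells per ml of culture medium, were infected with about 100 CCID50 of HIV-2 (ROD). Aliquots of 100 μl of infected cells were placed in 200 μl microtiter wells holding 100 μl of serial 5-fold compound dilutions, and syncytium formation was scored microscopically four days after infection.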

[1] = CEM cells, syncytium formation, day four post infection
[2] = HEL cells, virus-induced cytopathicity after seven days
[3] = Human betaherpesvirus 5, 168 h, HEL cells, virus-induced cytopathicity after seven days
[4] = Human betaherpesvirus 5, HEL, 168 h

Row | Structure (SMILES) | EC50 (ug/ml) HIV-1 (HIV-1 (IIIB); [1]) | Antiviral EC50 (ug/ml) Davis strain CMV (Davis strain CMV; [2]) [µg/mL] | EC50 (ug/ml) HIV-2 (HIV-2 (ROD); [1]) | EC50 (HIV-1 (IIIB); [1]) [µg/mL] | EC50 (Davis strain CMV; [3]) [µg/mL] | EC50 (HIV-2 (ROD); [1]) [µg/mL] | HIV-2 % Protection (HIV-2 (ROD)) [%] | HIV-1 % Protection (HIV-1 (IIIB)) [%] | Antiviral % Inhibition Davis strain CMV (Davis strain CMV; HEL cells) [%] | EC50 (HIV-1 (IIIB)) [µg/mL] | EC50 (Davis strain CMV; [4]) [µg/mL] | EC50 (HIV-2 (ROD)) [µg/mL]
1 | CC(C)c1ccc(C(C)C)c(CS(=O)(=O)c2cccc[n+]2[O-])c1 [Compound 35] | ≧4 ug/ml | 3.2 | ≧4 ug/ml |  |  |  | 37.5 | 37.5 |  |  |  | 
2 | COc1ccc(CS(=O)(=O)c2cccc[n+]2[O-])cc1OC [Compound 46] | ≧20 ug/ml | >50 | 15.0 µg/mL (≈ 48.5 µM) |  |  |  |  | 37.5 | 40.0 |  |  | 
3 | O=S(=O)(Cc1cccc(F)c1)c1cccc[n+]1[O-] [Compound 28] | 6.50 µg/mL (≈ 24.3 µM) | >20 | 7.5 µg/mL (≈ 28.1 µM) |  |  |  |  |  | 40.0 |  |  | 
4 | COc1ccc(C)cc1CS(=O)(=O)c1cccc[n+]1[O-] [Compound 30] | 1.60 µg/mL (≈ 5.45 µM) | 37.0 | 14.0 µg/mL (≈ 47.7 µM) |  |  |  |  |  |  |  |  | 
5 | CC(C)c1ccc(CS(=O)(=O)c2cccc[n+]2[O-])cc1 [Compound 58] | 3.40 µg/mL (≈ 11.7 µM) | 5.0 | 2.6 µg/mL (≈ 8.92 µM) |  |  |  |  |  |  |  |  | 
6 | Cc1ccc(C)c(CSc2ccccn2)c1 [Compound 148, 2-((2,5-dimethylphenyl)methylthio)pyridine] |  |  |  |  |  |  |  |  |  | > 20 | 0.4 (≈ 1.74 µM) | > 20
7 | O=S(=O)(Cc1ccc(Cl)cc1)c1cccc[n+]1[O-] [Compound 12] | 9.50 µg/mL (≈ 33.5 µM) | 20.0 | 9.5 µg/mL (≈ 33.5 µM) |  |  |  |  |  |  |  |  | 
8 | COc1cc(CS(=O)(=O)c2cccc[n+]2[O-])cc(OC)c1OC [Compound 50] | ≧20 ug/ml | >50 | ≧20 ug/ml |  |  |  | 37.5 | 37.5 | 20.0 |  |  | 
9 | COc1ccc(Br)c(CS(=O)(=O)c2cccc[n+]2[O-])c1 [Compound 31] | 4.00 µg/mL (≈ 11.2 µM) | 10.0 | 9.0 µg/mL (≈ 25.1 µM) |  |  |  |  |  |  |  |  | 
10 | Cc1ccc(C)c(CS(=O)(=O)c2cccc[n+]2[O-])c1C [Compound 41] | 5.00 µg/mL (≈ 17.2 µM) | 8.6 | 4.7 µg/mL (≈ 16.1 µM) |  |  |  |  |  |  |  |  | 
11 | O=[N+]([O-])c1ccccc1CS(=O)(=O)c1cccc[n+]1[O-] [Compound 42] | 8.00 µg/mL (≈ 27.2 µM) | >5 | ≧4 ug/ml |  |  |  | 37.5 |  | 10.0 |  |  | 
12 | O=[N+]([O-])c1ccc(CS(=O)(=O)c2cccc[n+]2[O-])cc1 [Compound 14] | >4 µg/mL | 7.0 | >4 µg/mL |  |  |  | 25.0 | 0.0 |  |  |  | 
13 | Cc1c(Cl)c(Cl)c(CS(=O)(=O)c2cccc[n+]2[O-])c(Cl)c1Cl [Compound 49] | ≧.8 ug/ml | 5.0 | ≧.8 ug/ml |  |  |  | 37.5 | 37.5 |  |  |  | 
14 | O=S(=O)(Cc1c(Cl)c(Cl)c(Cl)c(Cl)c1Cl)c1cccc[n+]1[O-] [Compound 32, 2-(Pentachlorobenzylsulfonyl)-pyridine-N-oxide] |  |  |  | 0.63 (≈ 1.49 µM) |  |  |  |  |  |  | 14 (≈ 33.2 µM) | 1 (≈ 2.37 µM)
15 | N#Cc1ccc(CS(=O)(=O)c2cccc[n+]2[O-])cc1 [Compound 34] | 9.00 µg/mL (≈ 32.8 µM) | >20 | 10.0 µg/mL (≈ 36.5 µM) |  |  |  |  |  | 10.0 |  |  | 
16 | COc1ccc(C(c2ccccc2)S(=O)(=O)c2cccc[n+]2[O-])cc1OC (centres unmarked) [Compound 61] | >4 µg/mL | 14.0 | >4.0 µg/mL |  |  |  | 6.0 | 0.0 |  |  |  | 
17 | CC(C)Cc1ccc(CS(=O)(=O)c2cccc[n+]2[O-])cc1 [Compound 55] | ≧4 ug/ml | 3.2 | 2.6 µg/mL (≈ 8.51 µM) |  |  |  |  | 37.5 |  |  |  | 
18 | Cc1ccc(C)c(CS(=O)(=O)c2cccc(C)[n+]2[O-])c1 [Compound 72] | 4.00 µg/mL (≈ 13.7 µM) | >50 | >100.0 µg/mL |  |  |  | 0.0 |  | 0.0 |  |  | 

Further lines, with some results ahead:

Row | EC50 (ug/ml) HIV-1 (HIV-1 (IIIB); [1]) | Antiviral EC50 (ug/ml) Davis strain CMV (Davis strain CMV; [2]) [µg/mL] | EC50 (ug/ml) HIV-2 (HIV-2 (ROD); [1]) | EC50 (HIV-1 (IIIB); [1]) [µg/mL] | EC50 (Davis strain CMV; [3]) [µg/mL] | EC50 (HIV-2 (ROD); [1]) [µg/mL] | Structure (SMILES) | HIV-2 % Protection (HIV-2 (ROD)) [%] | HIV-1 % Protection (HIV-1 (IIIB)) [%] | Antiviral % Inhibition Davis strain CMV (Davis strain CMV; HEL cells) [%] | EC50 (HIV-1 (IIIB)) [µg/mL] | EC50 (Davis strain CMV; [4]) [µg/mL] | EC50 (HIV-2 (ROD)) [µg/mL]
19 | 3.40 µg/mL (≈ 11.4 µM) | 12.0 | >4.0 µg/mL |  |  |  | Cc1ccc[n+]([O-])c1S(=O)(=O)Cc1ccccc1Cl [Compound 117] | 0.0 |  |  |  |  | 
20 |  |  |  | > 0.8 | 4.3 (≈ 17.4 µM) | > 0.8 | CC(c1ccccc1)[S+]([O-])c1cccc[n+]1[O-] (centres unmarked) [Compound 102, 2-(1-Phenylethylsulfinyl)pyridine N-oxide] | 0.0 | 0.0 |  |  |  | 
21 |  |  |  | 0.42 (≈ 1.29 µM) | 34.5 (≈ 106 µM) | > 100 | Cc1ccc(C)c(C(Cl)S(=O)(=O)c2cc(C)cc[n+]2[O-])c1 (centres unmarked) [Compound 74, 2-[(2,5-dimethylphenyl)chloromethylsulfonyl]-4-methylpyridine-1-oxide] | 0.0 |  |  |  |  | 
22 | 2.10 µg/mL (≈ 7.1 µM) | 11.5 | 3.0 µg/mL (≈ 10.1 µM) |  |  |  | Cc1ccc(C)c(C[S+]([O-])c2ccc(Cl)c[n+]2[O-])c1 (centres unmarked) [Compound 153] |  |  |  |  |  | 
23 | 1.50 µg/mL (≈ 5.6 µM) | 4.7 | >4.0 µg/mL |  |  |  | [O-][n+]1cccc(Cl)c1[S+]([O-])Cc1ccccc1 (centres unmarked) [Compound 136] | 0.0 |  |  |  |  | 
24 | >4 µg/mL | 4.1 | ≧4 ug/ml |  |  |  | CC(C)c1ccc(C(C)C)c(C[S+]([O-])c2cccc[n+]2[O-])c1 (centres unmarked) [Compound 95] | 37.5 |  |  |  |  | 
25 | 1.40 µg/mL (≈ 4.58 µM) | 10.0 | >100.0 µg/mL |  |  |  | Cc1ccc(C(C)S(=O)(=O)c2c(C)ccc[n+]2[O-])c(C)c1 (racemic) [Compound 78] | 0.0 |  |  |  |  | 
26 | 2.40 µg/mL (≈ 9.53 µM) | >50 | >20.00 µg/mL |  |  |  | [O-][n+]1cccc(Cl)c1SCc1ccccc1 [Compound 132] | 0.0 |  | 0.0 |  |  | 
27 | 0.70 µg/mL (≈ 2.25 µM) | 11.0 | >0.8 µg/mL |  |  |  | Cc1ccc(C)c(CS(=O)(=O)c2cccc(Cl)[n+]2[O-])c1 [Compound 77] | 0.0 |  |  |  |  | 
28 | 8.00 µg/mL (≈ 30.6 µM) | >50 | ≧20 ug/ml |  |  |  | COc1ccc(C)cc1CSc1cccc[n+]1[O-] [Compound 93] | 37.5 |  | 0.0 |  |  | 
29 | >4 µg/mL | >5 | >4.0 µg/mL |  |  |  | Cc1cc([N+](=O)[O-])ccc1CS(=O)(=O)c1c(C)ccc[n+]1[O-] [Compound 118] | 0.0 |  | 10.0 |  |  | 
30 | 16.00 µg/mL (≈ 67.1 µM) | >50 | >100 µg/mL |  |  |  | CN1CCCCC1CSc1cccc[n+]1[O-] (racemic) [Compound 156] | 0.0 |  | 0.0 |  |  | 
31 | 20.00 µg/mL (≈ 72.1 µM) | >50 | 12.0 µg/mL (≈ 43.3 µM) |  |  |  | [O-][n+]1ccccc1[S+]([O-])Cc1ccc2c(c1)OCO2 (centres unmarked) [Compound 96] |  |  | 0.0 |  |  | 
32 | ≧20 ug/ml | 8.6 | >20.0 µg/mL |  |  |  | Cc1ccc(C)c(C(C)S(=O)(=O)c2cc(C)cc(C)[n+]2[O-])c1 (centres unmarked) [Compound 81] | 0.0 | 37.5 |  |  |  | 
33 | >20 µg/mL | 43.0 | >20.00 µg/mL |  |  |  | Cc1ccc[n+]([O-])c1S(=O)(=O)Cc1c(Cl)cccc1Cl [Compound 139] | 0.0 | 0.0 |  |  |  | 
34 | >.8 µg/mL | >5 | >0.80 µg/mL |  |  |  | Cc1ccc(C)c(C(C)S(=O)(=O)c2c(Cl)ccc[n+]2[O-])c1 (racemic) [Compound 124] | 0.0 | 0.0 | 10.0 |  |  | 
